These results are taken from patent publication US7378535B2, “Production of furanones” (Unisearch Limited, A.C.N., priority 1998, dated 2008).

What is called melting point is the temperature of the solid-liquid transition.

`CC(O)C1=CC(=C(Br)Br)OC1=O` (stereo not shown) [Example 7, 5-(Dibromomethylene)-3-(1-hydroxyethyl)-2(5H)-furanone] had a melting point of 100 °C.
